Measured values: ChEMBL document CHEMBL1201862, “PubChem BioAssay data set” (2004)
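Test compounds were applied to cells in 96-well plates for 48 hours at 5 doses. GI50 = concentration required for 50% inhibition of growth.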 Activity calls are given as the source filed them. Rule as the data show it: active = GI50 up to about 1.1 µM and inactive = higher.

Tests used:
Assay in all cases: NCI tumour cell line growth inhibition, 48 h
HT-29 = test system: HT-29
OVCAR-4 = test system: OVCAR-4
SNB-19 = test system: SNB-19
HCC 2998 = test system: HCC 2998
786-0 = test system: 786-0
U-251 = test system: U-251
RXF 393 = test system: RXF 393
OVCAR-5 = test system: OVCAR-5
NCI-H522 = test system: NCI-H522
MCF7 = test system: MCF7
SF-295 = test system: SF-295
MDA-N = test system: MDA-N
EKVX = test system: EKVX
NCI-H226 = test system: NCI-H226
M14 = test system: M14
UO-31 = test system: UO-31
HL-60 = test system: HL-60
MDA-MB-435 = test system: MDA-MB-435
NCI-H23 = test system: NCI-H23
MOLT-4 = test system: MOLT-4

Compound | GI50 (HT-29) | GI50 (OVCAR-4) | GI50 (SNB-19) | GI50 (HCC 2998) | GI50 (786-0) | GI50 (U-251) | GI50 (RXF 393) | GI50 (OVCAR-5) | GI50 (NCI-H522) | GI50 (MCF7) | GI50 (SF-295) | GI50 (MDA-N) | GI50 (EKVX) | GI50 (NCI-H226) | GI50 (M14) | GI50 (UO-31) | GI50 (HL-60) | GI50 (MDA-MB-435) | GI50 (NCI-H23) | GI50 (MOLT-4)
CC(=O)Nc1nc(NC(C)=O)c2nc(CO)[nH]c2n1 | > 100 µM (inactive) | > 100 µM (inactive) | > 100 µM (inactive) | > 100 µM (inactive) | > 100 µM (inactive) | > 100 µM (inactive) | > 100 µM (inactive) | > 100 µM (inactive) | > 100 µM (inactive) | > 100 µM (inactive) | > 100 µM (inactive) | > 100 µM (inactive) | > 100 µM (inactive) | > 100 µM (inactive) | > 100 µM (inactive) | > 100 µM (inactive) | > 100 µM (inactive) | > 100 µM (inactive) | > 100 µM (inactive) | > 100 µM (inactive)
CC(C)/C=C1\CCC(CN(C)C)C1=O (stereo not given) | 2.12 µM (inactive) | 7.35 µM (inactive) | 9.66 µM (inactive) | 7.03 µM (inactive) | 0.632 µM (active) | 18.3 µM (inactive) | 0.656 µM (active) | 8.41 µM (inactive) | 0.082 µM (active) | 0.313 µM (active) | 16.6 µM (inactive) | 2.92 µM (inactive) | 7.1 µM (inactive) | 26.9 µM (inactive) | 1.77 µM (inactive) | 8.79 µM (inactive) | 1.09 µM (active) | 1.6 µM (inactive) | 5.56 µM (inactive) | 1.07 µM (active)
N#CC(C#N)=Cn1c(=S)[nH]c2ccc([N+](=O)[O-])cc21 | > 100 µM (inactive) | > 100 µM (inactive) | > 100 µM (inactive) | > 100 µM (inactive) | > 100 µM (inactive) | > 100 µM (inactive) | > 100 µM (inactive) | > 100 µM (inactive) | > 100 µM (inactive) | > 100 µM (inactive) | > 100 µM (inactive) | > 100 µM (inactive) | > 100 µM (inactive) | > 100 µM (inactive) | > 100 µM (inactive) | > 100 µM (inactive) | > 100 µM (inactive) | > 100 µM (inactive) | > 100 µM (inactive) | > 100 µM (inactive)
CCCCSC1=N/C(=C\c2ccco2)C(Cl)=N1 | > 100 µM (inactive) | > 100 µM (inactive) | > 100 µM (inactive) | > 100 µM (inactive) | > 100 µM (inactive) | > 100 µM (inactive) | > 100 µM (inactive) | > 100 µM (inactive) | > 100 µM (inactive) | > 100 µM (inactive) | > 100 µM (inactive) | > 100 µM (inactive) | > 100 µM (inactive) | > 100 µM (inactive) | > 100 µM (inactive) | > 100 µM (inactive) | > 100 µM (inactive) | > 100 µM (inactive) | > 100 µM (inactive) | > 100 µM (inactive)
CCOc1ccc(Nc2nc(N)nc(N)c2N=O)cc1 | 30.4 µM (inactive) | 69.3 µM (inactive) | 61 µM (inactive) | 55.2 µM (inactive) | > 100 µM (inactive) | > 100 µM (inactive) | 43.9 µM (inactive) | > 100 µM (inactive) | 55.5 µM (inactive) | 38.4 µM (inactive) | > 100 µM (inactive) | 62.1 µM (inactive) | 48.4 µM (inactive) | 39.6 µM (inactive) | > 100 µM (inactive) | 29.9 µM (inactive) | > 100 µM (inactive) | 52.4 µM (inactive) | 59.7 µM (inactive) | 17.6 µM (inactive)
COc1ccc(/C=C/C(=O)c2cc(OC)cc(OC)c2)cc1 | 1.91 µM (inactive) | 3.45 µM (inactive) | 1.69 µM (inactive) | 4.44 µM (inactive) | 1.16 µM (inactive) | 1.24 µM (inactive) | 3.33 µM (inactive) | 5.6 µM (inactive) | 2.22 µM (inactive) | 0.219 µM (active) | 1.24 µM (inactive) | 1.94 µM (inactive) | 6.52 µM (inactive) | 10.2 µM (inactive) | 2.45 µM (inactive) | 3.27 µM (inactive) | 0.151 µM (active) | 1.54 µM (inactive) | 2.58 µM (inactive) | 4.63 µM (inactive)
CO/N=[N+](\[O-])NC(C)C | > 100 µM (inactive) | > 100 µM (inactive) | > 100 µM (inactive) | > 100 µM (inactive) | > 100 µM (inactive) | > 100 µM (inactive) | > 100 µM (inactive) | > 100 µM (inactive) | > 100 µM (inactive) | > 100 µM (inactive) | > 100 µM (inactive) | > 100 µM (inactive) | > 100 µM (inactive) | > 100 µM (inactive) | > 100 µM (inactive) | 5.42 µM (inactive) | > 100 µM (inactive) | > 100 µM (inactive) | > 100 µM (inactive) | > 100 µM (inactive)
CCC(=O)N1C(=O)C(CC)(CC)C(=O)N1C(=O)CC | > 100 µM (inactive) | > 100 µM (inactive) | > 100 µM (inactive) | > 100 µM (inactive) | > 100 µM (inactive) | > 100 µM (inactive) | > 100 µM (inactive) | > 100 µM (inactive) | > 100 µM (inactive) | > 100 µM (inactive) | > 100 µM (inactive) | > 100 µM (inactive) | > 100 µM (inactive) | > 100 µM (inactive) | > 100 µM (inactive) | > 100 µM (inactive) | > 100 µM (inactive) | > 100 µM (inactive) | > 100 µM (inactive) | > 100 µM (inactive)
CN1CCN(CCCCN2c3ccccc3Sc3ccc(C(=O)c4ccccc4)cc32)CC1 | 1.29 µM (inactive) | 2.08 µM (inactive) | 1.91 µM (inactive) | 1.56 µM (inactive) | 1.58 µM (inactive) | 1.69 µM (inactive) | 0.923 µM (active) | 2.84 µM (inactive) | 1.78 µM (inactive) | 1.91 µM (inactive) | 1.8 µM (inactive) | 1.55 µM (inactive) | 2.36 µM (inactive) | 1.8 µM (inactive) | 1.82 µM (inactive) | 2.65 µM (inactive) | 1.57 µM (inactive) | 1.73 µM (inactive) | 1.85 µM (inactive) | 1.71 µM (inactive)
CN(/N=C/c1ccccn1)C1=NCCN1 | > 100 µM (inactive) | > 100 µM (inactive) | > 100 µM (inactive) | > 100 µM (inactive) | > 100 µM (inactive) | > 100 µM (inactive) | > 100 µM (inactive) | > 100 µM (inactive) | > 100 µM (inactive) | > 100 µM (inactive) | > 100 µM (inactive) | > 100 µM (inactive) | > 100 µM (inactive) | > 100 µM (inactive) | > 100 µM (inactive) | > 100 µM (inactive) | > 100 µM (inactive) | > 100 µM (inactive) | > 100 µM (inactive) | > 100 µM (inactive)
CCOc1ccc(/N=N/C2C(=O)N(C(=O)CC(=O)Nc3ccccc3)N=C2C)cc1 (stereo not given) | 33.6 µM (inactive) | > 100 µM (inactive) | 36.5 µM (inactive) | 40.9 µM (inactive) | > 100 µM (inactive) | 34.8 µM (inactive) | > 100 µM (inactive) | > 100 µM (inactive) | 83.9 µM (inactive) | 54.8 µM (inactive) | > 100 µM (inactive) | 2.68 µM (inactive) | 17.4 µM (inactive) | > 100 µM (inactive) | 58.1 µM (inactive) | > 100 µM (inactive) | 33.8 µM (inactive) | 5.07 µM (inactive) | 78.3 µM (inactive) | 36.5 µM (inactive)
CC(=O)O[C@H]1C[C@@H](O[C@H]2[C@@H](O)C[C@H](O[C@H]3[C@@H](O)C[C@H](O[C@H]4CC[C@@]5(C)[C@H](CC[C@@H]6[C@@H]5C[C@@H](O)[C@]5(C)[C@@H](C7=CC(=O)OC7)CC[C@]65O)C4)O[C@@H]3C)O[C@@H]2C)O[C@H](C)[C@H]1O.CC(=O)O[C@H]1[C@@H](O)C[C@@H](O[C@H]2[C@@H](O)C[C@H](O[C@H]3[C@@H](O)C[C@H](O[C@H]4CC[C@@]5(C)[C@H](CC[C@@H]6[C@@H]5C[C@@H](O)[C@]5(C)[C@@H](C7=CC(=O)OC7)CC[C@]65O)C4)O[C@@H]3C)O[C@@H]2C)O[C@@H]1C | 0.0278 µM (active) | 0.0153 µM (active) | 0.0637 µM (active) | 0.104 µM (active) | 0.0223 µM (active) | 0.0302 µM (active) | 0.0279 µM (active) | 0.033 µM (active) | < 0.01 µM (active) | 0.0415 µM (active) | 0.0299 µM (active) | 0.0402 µM (active) | 0.0175 µM (active) | 0.0508 µM (active) | 0.0637 µM (active) | 0.0486 µM (active) | 0.0382 µM (active) | 0.0443 µM (active) | 0.0114 µM (active) | 0.0167 µM (active)
O=C(O)c1cc(=O)c2c(OCC(O)COc3cccc4oc(C(=O)O)cc(=O)c34)cccc2o1 | > 75.7 µM (inactive) | > 100 µM (inactive) | > 100 µM (inactive) | > 100 µM (inactive) | > 100 µM (inactive) | > 75.2 µM (inactive) | > 100 µM (inactive) | > 84.3 µM (inactive) | > 56.8 µM (inactive) | > 85.1 µM (inactive) | > 95.5 µM (inactive) | > 71.8 µM (inactive) | > 96.6 µM (inactive) | > 100 µM (inactive) | > 88.1 µM (inactive) | > 100 µM (inactive) | > 100 µM (inactive) | > 67.5 µM (inactive) | > 84.3 µM (inactive) | > 87.7 µM (inactive)
